Assay results: patent publication US20150268219A1, “Method for Renal Transplantation” (Universite Paris Diderot Paris 7, priority 2014, published 2015)

How the values were obtained:
Assay type in all cases: cell-based, C57BL/6 mice
[1] = test system: bone marrow-derived macrophages (BMM); assay: Differentiation and TLR-agonist activation (CD86) of bone marrow-derived macrophages cultured with iron
Procedure: (§1) Bone Marrow derived macrophages (BMM) were prepared from the femur and tibias of C57BL/6 mice between 6 and 8 weeks of age. Bone marrow cells were cultured for 7-8 days at 37° C. and 5% CO2 in at 2×10^6 cells/ml in RPMI 1640 medium (Invitrogen) containing 10% FBS (v/v; Biowest), penicillin/streptomycin and 15% supernatant of L929 cells (v/v) as a source of M-CSF in the presence or in the absence of FeCl3-nitrilotriacetate (FeCl3-NTA; 10-60 μM as indicated). In some conditions, lipopolysaccharide (LPS) (150 ng/ml) (Sigma-Aldrich), peptidoglycan (PGN) (15 μg/ml), Poly-IC (50 μg/ml) (all from cayla-Invivogen, Toulouse, France) were added 12 hours before BBMs analysis on day 8.
Cells suspensions were prepared from cell culture or tissue and were incubated with anti-FcγR mAb 2.4G2 to block IgG receptors before cell staining for specific surface markers. Cells (1·10^6) were then stained at 4° C. in PBS containing 1% BSA with antibodies against mouse CD11b (M1/70, BioLegend), F4/80 (BM8, eBioscience), CD86 (GL-1, BioLegend), Ly6G (1A8, BD Biosciences), Ly6C (HK1.4, BioLegend). The presence of macrophages (CD11b^+F4/80^+Ly6G^− cells) in the peritoneum was analyzed by flow cytometry.

[2] = test system: bone marrow-derived macrophages (BMM); assay: Cytokine production in culture supernatant of BMM stimulated with LPS; conditions: LPS-Fe-BMM vs LPS-BMM
Procedure: as §1
Kidney tissues were homogenized in 300 μl of RIPA buffer supplemented with phosphatase and protease inhibitors cocktail (Sigma-Aldrich) for 30 s. Samples were cooled on ice for 30 min. Lysates were finally centrifuged at 10 000 g at 4° C. The cytokines IL-6, TNF-α, MCP-1, IL-10 and IL-12 were measured simultaneously by cytometric bead array (CBA) using mouse inflammation kit (according to the manufacturer's instruction (BD biosciences). Results were analyzed using FCAP array software. Proteins were quantified in supernatants by the bicinchoninic acid (BCA) method according to the manufacturer's instructions (Pierce). Cytokine concentrations were normalized to total protein concentration and expressed as picograms per milligram of total tissue protein.

[3] = test system: bone marrow-derived macrophages (BMM); assay: Comparative gene-chip analysis of macrophages treated or not with soluble iron and LPS; conditions: data not shown
Procedure: as §1
To further investigate whether iron load could influence macrophage activation, the inventors analyzed responses to TLR agonists. […] Increased iron levels in cultures promoted macrophage unresponsiveness to LPS both when it was added at the onset of cultures from primary bone marrow progenitors (day 0) or to cultures of almost completely differentiated cells (90% CD11b+ and F4/80+BMM; day 4) (data not shown). Thus, increased extracellular iron load impairs macrophage activation. To gain insight into the molecular mechanisms involved in iron load-dependent inhibition of macrophage inflammatory responses, the inventors performed comparative gene-chip analysis of macrophages treated or not with soluble iron (Fe-NTA, 60 μM) and subjected or not to LPS treatment. Venn diagram analysis from Affymetrix® microarray chips confirmed that the overall response to LPS differed between control (BMM) and iron-treated (Fe-BMM) macrophages (data not shown). Comparison Gene Ontology (GO) analysis was further performed to test the biological relevance of genes differing between these conditions.

[4] = test system: bone marrow-derived macrophages (BMM); assay: Reactive oxygen species (ROS) assessment by DCFH fluorescence; conditions: BMM differentiated with 10 or 20 μM FeCl3-NTA for 7 days, LPS 150 ng/mL 3 hours; vs control macrophages
Procedure: as §1
Bone-marrow derived macrophages (BMM) were stimulated by LPS (150 ng/ml) to induce ROS production. After 3 hours, BMM were washed with PBS and 5 μM dichlorodihydrofluorescein-diacetate (DCFH-DA) was added and incubated for 20 min at 37° C. Cells were washed again and taken to flow cytometer to ROS analysis. FeCl3-NTA was used as mentioned before and NaOH was used as vehicle.

[5] = 60 μM, LPS-Fe-BMM compared to LPS-BMM

Substance: FeCl3-nitrilotriacetate [Fe-NTA]
- CD86 up-regulation in response to TLR4 agonist (LPS) ([1]; BMM cultured with 20 or 60 μM iron, LPS 150 ng/mL overnight): not able to up-regulate CD86
- CD86 up-regulation in response to TLR2 agonist (PGN) ([1]; BMM cultured with 20 or 60 μM iron, PGN overnight): not able to up-regulate CD86
- CD86 up-regulation in response to TLR3 agonist (poly I:C) ([1]; BMM cultured with 20 or 60 μM iron, poly-IC overnight): not able to up-regulate CD86
- macrophage differentiation (cell morphology, CD11b and F4/80 expression) ([1]; BMM differentiated with 20 μM and 60 μM, data not shown): not affected
- secretion of IL-6 [2]: impaired secretion
- secretion of MCP-1 [2]: impaired secretion
- secretion of TNF-α [2]: impaired secretion
- genes implicated in inflammatory response [3, 5]: downregulated
- genes involved in NF-κB responses [3, 5]: down-regulated
- expression of genes involved in anti-oxidant responses ([3]; Fe-BMM compared to control cells): Increased expression
- expression of genes characterizing M1 or M2 phenotypes ([3]; increased extracellular iron levels): inhibited
- ROS responses to LPS stimulation [4]: impaired
